Data on one substance can be found in patent publication US8506950B2, “Degradable microcapsules” (ETH Zurich, priority 2008, dated 2013).

Assay [1] deals with T1, rLHR (Rattus norvegicus, UniProt P16235). The experiment in a line: Reporter gene expression (SEAP, eYFP) of CS/pDADMAC-encapsulated CK04 cells. In kind it is cell-based. On the set-up: Full-length cDNAs encoding the LHRs of rat (r) and bovine (b) origin; expressed in transfected cells; host or cells: CK04: HEK293T stably cotransfected with pLEN-rLHR and pZeoSV2(+), clone 6. The source says:
The SEAP production increased over time in the presence but not the absence of bLH.
To determine whether bLH can penetrate microcapsules and activate the gene expression of encapsulated cells, CK04 cells were transiently transfected with a vector encoding PCRE controlled eYFP expression (pCK91, PCRE-eYFP-pA). After transfection the cells were encapsulated in CS/pDADMAC-microcapsules and cultured in the absence or presence of bLH. […] In contrast in the absence of bLH the cells remained non-fluorescent. […] It was also investigated if the activation of encapsulated cells is bLH dose- and time-dependent. Therefore, CK04 cells transiently transfected for PCRE dependent SEAP expression (pCK62, PCRE-SEAP-PA) were encapsulated, the capsules cultured in the absence or presence of 100 ng/ml or 500 ng/ml bLH and the SEAP expression measured in 12 hours intervals (FIG. 11). […] 60 hours post-induction a 2.3±0.2 fold higher SEAP expression for LH-surge doses of bLH compared to 100 ng/ml hormone was measured. […]
The intracellular cAMP production of cells was quantified using the cAMP Fluorescence Polarization (FP) Biotrak Immunoassay System (GE Healthcare Bio-Sciences GmbH, Otelfingen, Switzerland, Cat No. RPN3595) according to the manufacturer's protocol. The expression of firefly luciferase was determined with the Tropix Luciferase Assay Kit (Applied Biosystems, Bedford, USA, Cat No. BC100L). […]
Background: A reporter such as luciferase makes a cellular process visible.

The target in assay [2] is T1, rLHR. The experiment in a line: bLH-dependent disruption of CS/pDADMAC microcapsules containing CK04 cells transfected with pCK71. In kind it is cell-based. On the set-up: Full-length cDNAs encoding the LHRs of rat (r) and bovine (b) origin; expressed in transfected cells; host or cells: CK04: HEK293T stably cotransfected with pLEN-rLHR and pZeoSV2(+), clone 6. To be noted: 500 ng/ml bLH, 24 hours post-induction. As for the experimental part:
(A) Phase-contrast photomicrographs of CS/pDADMAC encapsulated CK04 cells transiently transfected for PCRE controlled cellulase expression (pCK71, PCRE-cellulase-pA). The microcapsules were cultured in the absence or presence of 500 ng/ml bLH. In the presence of bLH the capsules were disrupted by the induced expression of cellulase whereas the non-induced capsules remained intact. Arrows indicate the disrupted capsules.
(B) Quantification of microcapsule disruption. Per sample approximately 150 capsules were counted and the amount of capsule disruption was calculated. 24 hours post-induction 98% of the capsules were disrupted by the induced cellulase. […]
Cells were encapsulated using the Inotech Encapsulator Research Unit IE-50R (Inotech Biotechnologies Ltd, Basel, Switzerland). […] The cells were counted using a Casy Counter (Scharfe Systems, Reutlingen, Germany) and 1×10^6 cells were resuspended in sodium […] sulfate solution (2% (w/v) in PBS, CS, Euroferm, Erlangen, Germany, Batch-No: FCY-06A) and aseptically encapsulated according to the standard protocol using the following settings: 0.2 mm nozzle with a nozzle vibration frequency of 1250 Hz, 20 ml syringe at a flow rate of 410 units, voltage for bead dispersion 1.15 kV. […]

T1 sequence (P16235 27-700): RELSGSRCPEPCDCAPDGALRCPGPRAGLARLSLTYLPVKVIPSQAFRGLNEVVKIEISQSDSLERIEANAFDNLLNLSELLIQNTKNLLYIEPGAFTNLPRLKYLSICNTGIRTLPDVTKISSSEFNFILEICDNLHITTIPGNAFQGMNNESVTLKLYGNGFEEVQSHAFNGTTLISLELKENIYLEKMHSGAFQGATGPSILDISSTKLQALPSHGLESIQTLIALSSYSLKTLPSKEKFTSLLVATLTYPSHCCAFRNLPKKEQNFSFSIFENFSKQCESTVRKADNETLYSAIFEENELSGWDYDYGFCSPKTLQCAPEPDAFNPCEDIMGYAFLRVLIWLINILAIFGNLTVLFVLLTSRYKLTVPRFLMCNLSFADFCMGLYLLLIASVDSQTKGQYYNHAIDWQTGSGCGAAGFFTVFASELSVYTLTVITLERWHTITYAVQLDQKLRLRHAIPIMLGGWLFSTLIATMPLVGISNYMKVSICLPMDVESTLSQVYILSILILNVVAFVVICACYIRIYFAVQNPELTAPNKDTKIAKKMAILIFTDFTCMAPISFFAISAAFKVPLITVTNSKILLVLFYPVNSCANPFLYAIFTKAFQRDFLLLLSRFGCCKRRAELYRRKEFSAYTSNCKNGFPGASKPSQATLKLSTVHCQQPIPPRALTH

With bovine luteinizing hormone [bLH], in assay [1] (encapsulated CK04, pCK62, 60 hours post-induction, 500 ng/ml vs 100 ng/ml), the “SEAP expression for LH-surge doses of bLH compared to 100 ng/ml” value turned out to be 2.3±0.2 fold. In assay [1] (encapsulated CK04, pCK91, bLH present), the “eYFP expression of encapsulated cells” value is listed as “strongly induced”. The disrupted capsules in assay [2] came to 98%.
